In patent US20180142537A1, “WATER INJECTION SYSTEM COMPRISING BIOFILM SENSOR(S)” (TOTAL SA, priority 2015, published 2018):

Assays:
[1] = system: biofilm; assay: Detection and removal of biofilm by batch or continuous injection of a biocide, seawater channels with ALVIM electrochemical biofilm probe; conditions: Mediterranean seawater; for biofilm probe signal after batch injection of biocide: batch injections at biofilm phases 900 mV, 1100 mV and 1200 mV, FIG. 3
Method: Tests of biofilm detection were carried out in a pilot plant continuously fed with Mediterranean seawater (2 m deep, 50 m from the coast). The experimental conditions are favorable to the biofilm growth: laminar flowing and coastal seawater rich in microorganisms and suspended solids (Silt Density Index SDI5min=10-18).
Tests were carried out in a tank divided in 6 parallel channels with equal dimensions (0.76 m-long, 0.1 m-deep and 0.07 m-wide per channel). Each channel was continuously fed with from 10 L/h to 40 L/h of seawater pre-filtered with a multimedia filter (40 μm). The speed of water flowing in the channels ranges from 0.0003 to 0.0013 m/s.
Several channels are equipped with an electrochemical biofilm sensor whose working electrode is immersed within the flowing water phase. The electrochemical biofilm sensor is provided by ALVIM Srl. This biofilm sensor is able to detect the electrochemical activity of a biofilm (Faimali et al., 2010 and Pavanello et al., 2011). This activity is proportional to the surface covered with biofilm. Thus, when a biofilm appears on the flat surface of the working electrode, the electrical signal transmitted by the device instantly increases. When the working electrode is immersed in seawater, its potential is stable (around 600 mV). Whenever the working electrode detects the biofilm, its potential increases and reaches a potential threshold which relate to a given maximum value of the probe (signal saturation).
The following experiment has been performed on two parallel channels of the tank. Each one is equipped with an ALVIM probe. Two biocides were tested: sodium hypochlorite (ClO^−Na^+) and rocideDB (DBNPA). Batch injections of biocides have been carried out at different development phases of the biofilm (900 mV, 1100 mV and 1200 mV) in order to evaluate the resistance of the biofilm as a function of its maturation time.

[2] = system: biofilm; assay: Biofilm growth upstream and downstream an ultrafiltration unit, with sodium hypochlorite injection; conditions: 2 ppm injected at pilot inlet, upstream of the ultrafiltration module; two injections; FIG. 5
Source text: A second series of tests has been carried out to study the efficiency of inline monitoring upstream and downstream an ultrafiltration unit (pore size 10-50 nm). This type of porous membranes is considered as being able to retain all microorganisms present in natural water.
Ultrafiltration modules are used according to the set up represented at FIG. 4. The UF modules are continuously fed with pre-filtered Mediterranean seawater (40 μm multimedia filter F, 2 m deep, 50 m from the coast, laminar flowing, Silt Density Index SDI5min=10-18). The flow rates of the UF modules are: 3000-4000 L/h and the recovery is around 80%.
Two probes are positioned at the following locations of the pilot: • Probe 1: at the feedwater point of the ultrafiltration module (0.4-0.6 m/s);
Probe 2: downstream the ultrafiltration module (flowing velocity=0.3-0.5 m/s).
A dose of sodium hypochlorite is injected at various times during the experiment at the inlet of the pilot (upstream probe 1) as shown on FIG. 5.

Row | SMILES | biofilm probe signal after batch injection of biocide [1] | biofilm growth under continuous biocide injection ([1]; continuous injection of 1 mg/L) | signal of probe 1 (feedwater) after biocide injection [2]
1 | N#CC(Br)(Br)C(N)=O [DBNPA, 2,2-dibromo-3-nitrilopropionamide] | brings the signal back to the baseline | – | –
2 | OCl [sodium hypochlorite] | brings the signal back to the baseline | no biofilm growth was detected | goes down rapidly to the baseline
